Measurements published in PubChem BioAssay (NCI).
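Five compound concentrations were applied to cells in 96-well plates for 48 hours; endpoints were derived by simple linear interpolation of the resulting dose-response curve. Abbreviation: GI50, concentration required for 50% inhibition of growth. TGI marks complete inhibition of growth.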

Columns and labels:
Assay in all cases: NCI anticancer screen, dose series, 48 h
[1] = system: HCT-116 colon
[2] = system: HT29 colon
[3] = system: SK-MEL-5 melanoma
[4] = system: LOX IMVI melanoma
[5] = system: UO-31 renal
[6] = system: KM12 colon
[7] = system: M14 melanoma
[8] = system: SK-MEL-28 melanoma
[9] = system: NCI-H23 lung
[10] = system: OVCAR-3 ovarian

| Compound | TGI [1] [µM] | TGI [2] [µM] | TGI [3] [µM] | TGI [4] [µM] | TGI [5] [µM] | TGI [6] [µM] | TGI [7] [µM] | TGI [8] [µM] | TGI [9] [µM] | TGI [10] [µM] | GI50 [1] [µM] | GI50 [2] [µM] | GI50 [3] [µM] | GI50 [4] [µM] | GI50 [5] [µM] | GI50 [6] [µM] | GI50 [7] [µM] | GI50 [8] [µM] | GI50 [9] [µM] | GI50 [10] [µM] |
| --- | --- | --- | --- | --- | --- | --- | --- | --- | --- | --- | --- | --- | --- | --- | --- | --- | --- | --- | --- | --- |
| Oc1ccc2c3c1OC1c4[nH]ncc4C[C@H]4[C@@H](C2)N(CC2CC2)CC[C@]314 (stereo not given in full) | > 100 | > 100 | > 100 | > 100 | > 100 | > 100 | > 100 | > 100 | > 100 | > 100 | – | – | – | – | – | – | – | – | – | – |
| CC(C)(C)CC(C)(C)c1ccc(O)c(Cc2ccc(Cl)cc2Cl)c1 | 3.16 | 3.03 | 2.95 | 2.86 | 2.83 | 3 | 3.08 | 2.96 | 2.89 | 3.11 | 1.66 | 1.67 | 1.6 | 1.53 | 1.5 | 1.63 | 1.61 | 1.61 | 1.53 | 1.74 |
| COc1ccc(/C=C2\COc3ccc(O)c(O)c3C2=O)c(OC)c1OC | 3.96 | 13.8 | 5.33 | 3.49 | 3.02 | 10.8 | 8.93 | 7.37 | 14.5 | 11.5 | 1.75 | 3.1 | 2.25 | 1.78 | 1.42 | 2.89 | 2.39 | 2.63 | 3.22 | 2.94 |
| COC(=O)c1cc2oc(/C=C3/SC(=S)N(N)C3=O)cc2n1Cc1ccccc1 | 18.9 | 19.4 | 7.03 | 16 | 10.6 | > 29.7 | 31.2 | > 30.1 | 21.2 | 6.73 | 5.73 | 7.47 | 1.99 | 2.61 | 3.6 | 6.05 | 4.33 | 7.48 | 4.46 | 2.17 |
| COc1ccc(C(=NN=C(N)N)c2ccc(OC)cc2)cc1 | 12.4 | 12.6 | 5.76 | 11.4 | 15.6 | 8.41 | 6.36 | 19.1 | 17.8 | 4.76 | 3.15 | 2.95 | 2.25 | 2.91 | 3.46 | 2.31 | 2.35 | 5.7 | 3.87 | 1.74 |
| OCC[N+]12CCCN1CCC2 | > 100 | > 100 | > 100 | > 100 | > 100 | > 100 | > 100 | > 100 | > 100 | > 100 | – | – | – | – | – | – | – | – | – | – |
| Cn1cc(C2=C(c3cn(-c4ccccc4)c4ccccc34)C(=O)NC2=O)c2ccccc21 | > 25 | > 25 | > 25 | > 25 | > 25 | > 25 | > 25 | > 25 | > 25 | > 25 | 11 | 9.56 | 10.8 | 19.2 | 5.35 | 8.12 | 13 | 22.3 | 18.8 | 14 |
